Measurements reported in patent US11198692B2, “Dihydro-pyrrolo-pyridine derivatives” (Pfizer Inc., priority 2017, dated 2021).

Biological target: T1, Human M4 receptors (Homo sapiens, UniProt P08173)
T1 construct: expressed in transfected cells
T1 sequence (P08173 1-479): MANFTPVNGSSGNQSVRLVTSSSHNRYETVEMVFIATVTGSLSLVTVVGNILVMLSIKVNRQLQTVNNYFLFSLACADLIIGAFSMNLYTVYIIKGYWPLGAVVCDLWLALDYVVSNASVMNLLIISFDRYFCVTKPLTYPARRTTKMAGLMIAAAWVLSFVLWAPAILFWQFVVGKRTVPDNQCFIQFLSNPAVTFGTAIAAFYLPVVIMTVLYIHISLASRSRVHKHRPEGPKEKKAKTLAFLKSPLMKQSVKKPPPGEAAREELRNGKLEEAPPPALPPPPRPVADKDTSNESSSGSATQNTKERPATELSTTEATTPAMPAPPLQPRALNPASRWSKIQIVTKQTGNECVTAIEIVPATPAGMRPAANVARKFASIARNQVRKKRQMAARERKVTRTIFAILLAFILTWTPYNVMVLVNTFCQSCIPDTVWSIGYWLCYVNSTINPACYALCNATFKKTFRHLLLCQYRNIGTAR
Experiment: M4 PAM cAMP assay (GloSensor)
Format: cell-based
Conditions: HEK293 GloSensor cells expressing hM4, with EC20 acetylcholine and isoproterenol, geometric mean of 2-4 determinations unless footnoted (b: >=5, c: single); for Emax: read-out: EC50 Mean Asymptote Maximum (%)
Experimental: The M4 cAMP assay was designed to determine the potency and efficacy of muscarinic positive allosteric modulators (PAMs). Human M4 receptors were stably expressed in Human embryonic kidney (HEK293) cells expressed with the Promega GloSensor™ cAMP technology.
HEK293 GloSensor cells expressing hM4 cells were cultured in growth media containing DMEM with 10% FBS, 1% Penicillin/Streptomycin, 500 μg/mL G418, 200 μg/mL Hygomycin B, and 1% Glutamax. When cells had grown to 80%-90% confluency, cells were harvested and seeded at a density of 25,000 cells/40 μL well, in a 384 white walled plates (Becton Dickinson 356661). Plates were incubated at 37 degrees C. and 5% CO2 for use after 24 hours.
Compound Preparation for Activator Screen:
Test compounds were initially prepared as 100% DMSO stock solutions, then transferred and serially diluted in 384-well compound plates (Matrix #4325). Each compound was tested at 10 concentrations in duplicate per experiment. Compound plates are spotted with 0.2 μL/well activator at 400 times the final assay concentration. Positive and negative controls for the compound alone activator response was 10 μM acetylcholine (Sigma # A2661) and DMSO, respectively. EC20 of acetylcholine was also used to define PAM activities.
Promega GloSensor™reagent (Promega # E1291) had previously been aliquotted. For each experiment, a stock solution of GloSensor™ was thawed out and equilibration medium was prepared with 88% CO2-independent media (Invitrogen #18045088), 10% fetal bovine serum and 2% GloSensor™ cAMP Reagent stock solution. Stock solution was mixed. Culture media in cell plates was discarded, then replaced with 40 μL/well pre-warmed equilibration media, then incubated in the dark at room temperature for 2 hours. During the incubation, stimulation media containing agonist and EC20 acetylcholine was prepared. CO2-independent media containing 50 […] Isoproterenol representing an EC80 of b-adrenergic receptor activity (Sigma #16504, 400 times final concentration) and EC20 acetylcholine in 1.25% DMSO was added to all columns of the compound plate, with the exception of column 12 to allow for EC0 control. […] Compounds are now 5 times the final assay concentration. The plate was mixed using a plate agitator. At the end of the 2 hour GloSensor™ incubation, add 10 μL of the CO2-independent media containing agonist, EC20 acetylcholine and isoproterenol to the cell plate. Cell plate was then incubated for 10 minutes at room temperature, and then read using an EnVision plate reader (Perkin Elmer).
Data was exported from the EnVision plate reader. The percent effect for each well was determined using the mean values for the positive and negative controls on each plate for each read, specifically 100*(compound−negative control)/(positive control−negative control). Dose response curves were fitted to the compound percent effect data using a 4-parameter logistic fit model. Data was reported as EC50 and Emax, with the Emax as the maximum asymptote of the fitted dose response curve.

[1] = Emax = maximum asymptote of fitted dose response curve

Row | SMILES | Emax [1] [%] | EC50 [nM] | EC50 Mean Asymptote Maximum (%) [1]
1 | CNc1nc(C)c(C)c2c1CN(C(=O)CC1CN(c3ccnc(C(F)(F)F)c3)C1)C2C (racemic) [Example 42, 2-{1-[2-(trifluoromethyl)pyridin-4-yl]azetidin-3-yl}-1-[1,6,7-trimethyl-4-(methylamino)-1,3-dihydro-2H-pyrrolo[3,4-c]pyridin-2-yl]ethanone] | 116 | 6.96 | –
2 | Cc1nc(NCC2CC2)c2c(c1C)CN(C(=O)CC1CN(c3ccncn3)C1)C2 [Example 22, 1-{4-[(cyclopropylmethyl)amino]-6,7-dimethyl-1,3-dihydro-2H-pyrrolo[3,4-c]pyridin-2-yl}-2-[1-(pyrimidin-4-yl)azetidin-3-yl]ethanone] | 99.7 | 0.626 | –
3 | Cc1nc(OC(F)F)c2c(c1C)CN(C(=O)CC1CN(c3cncnc3)C1)C2 [Example 56, 1-[4-(difluoromethoxy)-6,7-dimethyl-1,3-dihydro-2H-pyrrolo[3,4-c]pyridin-2-yl]-2-[1-(pyrimidin-5-yl)azetidin-3-yl]ethanone] | 109 | 150 | –
4 | CNc1nc(C)c(C)c2c1CN(C(=O)c1cnn(C)c1)C2 [Example 48, [6,7-dimethyl-4-(methylamino)-1,3-dihydro-2H-pyrrolo[3,4-c]pyridin-2-yl](1-methyl-1H-pyrazol-4-yl)methanone] | 96.8 | 8.46 | –
5 | CNc1nc(C)c(C)c2c1CN(C(=O)CC1CN(c3ccnc(C(F)(F)F)c3)C1)C2C (single isomer, unassigned) [Example 44, 2-{1-[2-(trifluoromethyl)pyridin-4-yl]azetidin-3-yl}-1-[1,6,7-trimethyl-4-(methylamino)-1,3-dihydro-2H-pyrrolo[3,4-c]pyridin-2-yl]ethanone] | – | 1.8 | 107^c %
6 | Cc1nc(C(F)F)c2c(c1C)CN(C(=O)CC1CN(c3ccnc(C(F)F)c3)C1)C2 [Example 39, 1-[4-(difluoromethyl)-6,7-dimethyl-1,3-dihydro-2H-pyrrolo[3,4-c]pyridin-2-yl]-2-{1-[2-(difluoromethyl)pyridin-4-yl]azetidin-3-yl}ethanone] | 101 | 32 | –
7 | Cc1c2c(c(=O)n(C)c1C)CN(C(=O)CC1CN(c3ccnc(C(F)(F)F)c3)C1)C2 [Example 25, 5,6,7-trimethyl-2-({1-[2-(trifluoromethyl)pyridin-4-yl]azetidin-3-yl}acetyl)-1,2,3,5-tetrahydro-4H-pyrrolo[3,4-c]pyridin-4-one] | 98.9 | 8.35 | –
8 | Cc1nc(N(C)C)c2c(c1C)CN(C(=O)CC1CN(c3cccnc3)C1)C2 [Example 17, 1-[4-(dimethylamino)-6,7-dimethyl-1,3-dihydro-2H-pyrrolo[3,4-c]pyridin-2-yl]-2-[1-(pyridin-3-yl)azetidin-3-yl]ethanone] | 102 | 17.9 | –
9 | CNc1nc(C)c(C)c2c1CN(C(=O)CC1CN(c3ccnc(OC(F)F)c3)C1)C2 [Example 3, 2-{1-[2-(Difluoromethoxy)pyridin-4-yl]azetidin-3-yl}-1-[6,7-dimethyl-4-(methylamino)-1,3-dihydro-2H-pyrrolo[3,4-c]pyridin-2-yl]ethanone] | 106 | 2.91 | –
10 | CNc1nc(C)c(C)c2c1CN(C(=O)OC1Cc3cccnc3C1)C2 (stereo not drawn) [Example 6, 6,7-Dihydro-5H-cyclopenta[b]pyridin-6-yl 6,7-dimethyl-4-(methylamino)-1,3-dihydro-2H-pyrrolo[3,4-c]pyridine-2-carboxylate] | 92 | 50.6 | –
11 | CNc1nc(C)c(C)c2c1CN(C(=O)CC1CN(c3ccnc(C)c3)C1)C2 [Example 35, 1-[6,7-dimethyl-4-(methylamino)-1,3-dihydro-2H-pyrrolo[3,4-c]pyridin-2-yl]-2-[1-(2-methylpyridin-4-yl)azetidin-3-yl]ethanone] | 97.7 | 13.6 | –
12 | CNc1nc(C)c(C)c2c1CN(C(=O)CC1CN(c3nncs3)C1)C2 [Example 37, 1-[6,7-dimethyl-4-(methylamino)-1,3-dihydro-2H-pyrrolo[3,4-c]pyridin-2-yl]-2-[1-(1,3,4-thiadiazol-2-yl)azetidin-3-yl]ethanone] | 93.5 | 3.47 | –
